This note sets out measurements from patent US20220354835A1, “COMPOUNDS FOR DEGRADING TAU PROTEIN AGGREGATES AND USES THEREOF” (Aprinoia Therapeutics Limited, priority 2019, published 2022).

The structures appear in SMILES notation.

The target in data set [1] is T1, Tau aggregates in P301L-Tau-FL-GFP HEK293 cells (Homo sapiens, UniProt P10636, P618L).
T1 construct: express full-length human tau T40 (2N4R) carrying the P301L mutation with a GFP tag; expressed in transfected cells
In words: Tau degradation assay (APNmAb005 ELISA-based Tau aggregation assay). The class given is cell-based. Particulars: 1 μM of compound, 24 hours, P301L-Tau-FL-GFP HEK293 cells seeded with rTg4510 brain lysate; read-out: Activity (reduction of tau aggregates). The procedure:
(A). Cell-based model of Tau inclusion formation: Six month old rTg4510 mouse brain lysates were used as the source of tau seeds, prepared as described in Example 26 above. P301L-Tau-FL-GFP HEK293 cells represent HEK293 cells express full-length human tau T40 (2N4R) carrying the P301L mutation with a GFP tag (P301L-Tau-FL-GFP). 1×10^6 of P301L-Tau-FL-GFP HEK293 cells were cultured on a 6-well plate in culture medium containing DMEM/F-12 (Gibco) supplemented with 10% fetal bovine serum (FBS) (Gibco), 1% Penicillin-Streptomycin (Gibco) and 0.5 mg/ml geneticin (Thermo Fisher Scientific) for 24 hours to reach 70-90% confluency, indicating the cells were ready for transfection. 50 μg of 6-month-old rTg4510 mouse brain lysate was diluted in 400 μL of serum free medium and mixed with 16 μL of lipofectamine 3000 reagent (Thermo Fisher Scientific) diluted in 400 μl of serum free medium. A solution mixture of rTg4510 brain lysate and lipofectamine 3000 was incubated at room temperature for 25 min. The culture media were removed, and then a solution mixture of rTg4510 lysate and lipofectamine 3000 was added to the cells for transfection. The solution mixture was incubated at room temperature for five hours, followed by medium change to 10% fetal bovine serum (FBS). After two-day incubation, Tau aggregates (Tau spots) were induced and images were acquired by ImageXpress Micro Confocal high-content imaging system (Molecular Devices) as described in Example 52 above. Analysis was performed by two customized modules in MetaXpress software (Molecular Devices) for aggregated tau analysis. Output included cell numbers, numbers of tau spots, average intensity of tau spots, and average size of tau spots.
(B). Compound treatment: 100 μL of 3×10^4 cells comprising Tau aggregates, prepared as described above in step (A), were plated on a 96-well plate coated with poly-D-lysine (BD Biosciences) and cultured for 24 hours. Compounds to be tested were dissolved in culture medium containing 0.1% DMSO. Each of test compounds in the concentration of 1, 0.2 and 0.04 μM was added to the cells comprising Tau aggregates and incubated at 37° C. for 24 hours. After that, culture medium was removed, cells were washed with PBS solution and then lysed using 30 μL of lysis buffer (PBS containing 0.3% Triton X-100 and 400 mM NaCl) for one hour at 4° C., and then cell lysate was diluted by 170 μl of PBS containing 400 mM NaCl. Cell lysate was filtrated by a […] filtration plate (Pall) and applied for Tau aggregation assay.
(C). Control cell lysate: control cell lysate was collected from non-seeded cells.
(D). ELISA-based Tau aggregation assay: APNmAb005 ELISA kit for Tau aggregation assay was designed and developed to detect abnormal tau aggregates in buffered solution or cell lysate by using anti-Tau APNmab005 as capture and detection antibody. This antibody is a highly specific antibody bound to human tau aggregates accumulated in mammalian cells. APNmAb005 is recited in PCT Patent Application No. PCT/M2020/057415, filed Aug. 5, 2020, which is incorporated herein by reference.
0.15 μg of APNmAb005 in 100 mM sodium carbonate buffer (pH 9.6) was coated on a high-binding polystyrene 96-well microplate (Greiner Bio-One) at 4° C. overnight. The microplate was washed with PBS followed by treatment with Intercept (PBS) blocking buffer (LI-COR) at room temperature for 2 hours. After that, the microplate was washed with PBS, and then the cell lysate with compound treatment, prepared as described above in step (C), was added into each well of the microplate and incubated at room temperature for 2 hours. The microplate was washed with PBS and then incubated with HRP-conjugated secondary antibody APNmAb005 at room temperature for 3 hours. HRP-conjugated secondary antibody APNmAb005 was prepared using HRP conjugation kit (Abcam,ab102890). The microplate was then washed with PBS and incubated with 100 μL of horseradish peroxidase (HRP) substrate at room temperature. […]
Background: An ELISA detects its analyte on a solid surface through an enzyme-linked reagent.

Data set [2] can be described thus: In vivo pharmacokinetic study of plasma and brain tissue. The note with it: mice, 1 mg/kg, intravenous. As to the method: To determine whether the compounds of the present disclosure are capable of crossing the blood brain barrier (BBB), example compound 160313 was administered to mice in a pharmacokinetic study (1 mg/kg, intravenous) of plasma and brain tissue.
Animal Husbandry: Mice were housed at animal room environment with ventilation 15 times/hour, lighting 12 hours/day, temperature 20° C. to 24° C. and humidity 40% to 70%. The study rooms were disinfected and cleaned prior to the start of the study and the operation area was cleaned after each dosing or sampling during the study conduct. All animals had free access to food and water during the study. The animals had access to Certified Rodent Diet and water ad libitum. The nutritional composition and levels of contaminants of the diet and impurities and contaminants of the water were monitored by third organization. The health status of the animals was evaluated in accordance with accepted animal husbandry procedures and deemed suitable for experimental use. […]
Bioanalytical Method Development: The concentrations of compound in plasma and brain samples were determined using a liquid chromatography with tandem mass spectrometry (LC-MS/MS) based method.

T1 sequence (P10636 1-441 isoform P10636-8 P301L): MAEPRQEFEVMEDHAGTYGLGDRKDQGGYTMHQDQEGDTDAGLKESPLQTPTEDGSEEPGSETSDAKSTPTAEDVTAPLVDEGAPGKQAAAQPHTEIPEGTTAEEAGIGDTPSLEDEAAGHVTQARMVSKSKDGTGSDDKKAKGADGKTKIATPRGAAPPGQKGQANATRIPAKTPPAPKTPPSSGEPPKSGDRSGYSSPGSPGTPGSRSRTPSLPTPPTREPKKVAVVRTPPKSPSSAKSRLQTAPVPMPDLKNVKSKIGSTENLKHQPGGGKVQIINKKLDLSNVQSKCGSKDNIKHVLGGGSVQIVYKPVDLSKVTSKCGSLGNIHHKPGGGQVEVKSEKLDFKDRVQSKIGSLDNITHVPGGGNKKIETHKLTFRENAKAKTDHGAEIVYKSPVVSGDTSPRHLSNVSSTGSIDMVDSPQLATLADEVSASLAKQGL

Turning to `CN(C)c1ccc(-c2ccc(-c3nc4ccc(NCCOCCOc5ccc6c(c5)CN(C5CCC(=O)NC5=O)C6=O)cc4s3)cc2)cn1` (centres unmarked) [Compound 160313, 3-[6-[2-[2-[[2-[4-[6-(dimethylamino)pyridin-3-yl]phenyl]-1,3-benzothiazol-6-yl]amino]ethoxy]ethoxy]-3-oxo-1H-isoindol-2-yl]piperidine-2,6-dione], the inhibition at 1 µM in data set [1] was under 10%. The “Cmax, Brain” value in data set [2] was found to be 111 ng/mL.
